Common to all, as to assay: Transient transfection (transactivation) assay in CV-1 cells, GAL4-PPAR chimera, luciferase reporter
Holding throughout (type): cell-based

One assay has as its target T1, PPAR alpha (Homo sapiens, UniProt Q07869).
T1 construct: expressed in transfected cells; host or cells: CV-1 cells
T1 sequence (Q07869 239-466 limits assumed): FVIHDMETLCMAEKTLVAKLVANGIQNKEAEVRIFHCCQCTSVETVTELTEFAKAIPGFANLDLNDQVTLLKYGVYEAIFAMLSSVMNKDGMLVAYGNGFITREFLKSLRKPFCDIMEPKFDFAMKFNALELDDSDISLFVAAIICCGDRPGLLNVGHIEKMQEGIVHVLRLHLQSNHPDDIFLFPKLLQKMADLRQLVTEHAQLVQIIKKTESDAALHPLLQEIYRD
The method, boiled down: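 GAL4 DNA-binding domain fused to PPAR ligand binding domain, co-transfected into CV-1 cells with a luciferase reporter carrying four or five GAL4 sites. Replated cells in phenol-red free DME with 5% delipidated calf serum were treated with compound or 1% DMSO for 20-24 hours; luciferase read for EC50 and efficacy.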

A further assay deals with T2, PPAR delta (Homo sapiens, UniProt Q03181).
T2 construct: expressed in transfected cells; host or cells: CV-1 cells
T2 sequence (Q03181 211-439 limits assumed): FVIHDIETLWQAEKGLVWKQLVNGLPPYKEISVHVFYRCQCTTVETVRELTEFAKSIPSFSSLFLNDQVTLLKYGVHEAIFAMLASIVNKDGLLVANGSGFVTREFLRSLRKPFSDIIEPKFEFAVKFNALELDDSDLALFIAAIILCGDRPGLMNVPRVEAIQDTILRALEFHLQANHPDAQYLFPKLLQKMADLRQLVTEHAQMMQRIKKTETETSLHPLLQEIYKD

The target in another assay is T3, PPAR gamma (Homo sapiens, UniProt P37231).
T3 construct: expressed in transfected cells; host or cells: CV-1 cells
T3 sequence (P37231 238-503 limits assumed): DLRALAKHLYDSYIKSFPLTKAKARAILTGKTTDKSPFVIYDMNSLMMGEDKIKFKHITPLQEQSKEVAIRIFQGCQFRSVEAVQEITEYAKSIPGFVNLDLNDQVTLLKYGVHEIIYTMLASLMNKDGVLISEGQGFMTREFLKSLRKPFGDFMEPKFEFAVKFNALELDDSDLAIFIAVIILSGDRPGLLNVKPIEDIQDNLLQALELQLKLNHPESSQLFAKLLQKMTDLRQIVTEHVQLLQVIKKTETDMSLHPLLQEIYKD

The structures appear in SMILES notation. pEC50: −log10 of the molar value. Bounds are passed on as bounds.

The values below come from patent publication US20050234046A1 (Kalypsys, Inc., priority 2004, published 2005).

Excerpt for PPAR delta: (§1) Compounds may be screened for functional potency in transient transfection assays in CV-1 cells or other cell types for their ability to activate the PPAR subtypes (transactivation assay). A previously established chimeric receptor system was utilized to allow comparison of the relative transcriptional activity of the receptor subtypes on the same synthetic response element and to prevent endogenous receptor activation from complicating the interpretation of results. […] The ligand binding domains for murine and human PPAR-alpha, PPAR-gamma, and PPAR-delta are each fused to the yeast transcription factor GAL4 DNA binding domain. CV-1 cells were transiently transfected with expression vectors for the respective PPAR chimera along with a reporter construct containing four or five copies of the GAL4 DNA binding site driving expression of luciferase. After 8-16 h, the cells are replated into multi-well assay plates and the media is exchanged to phenol-red free DME medium supplemented with 5% delipidated calf serum. 4 hours after replating, cells were treated with either compounds or 1% DMSO for 20-24 hours. Luciferase activity was then assayed with Britelite (Perkin Elmer) following the manufacturer's protocol and measured with either the Perkin Elmer Viewlux or Molecular Devices Acquest Xsee, for example, Kliewer, S. A., et. al. Cell 1995, 83, 813-819). Rosiglitazone is used as a positive control in the hPPAR-γ assay. Wy-14643 and GW7647 is used as a positive control in the hPPAR-α assay. GW501516 is used as the positive control in the hPPAR-δ assay.
Excerpt for PPAR gamma: as §1

Take `Cc1cc(CC(=O)O)cc(S(=O)(=O)N2CCN(c3ccc(F)cc3)CC2)c1` [Example 173, {3-[4-(4-Fluoro-phenyl)-piperazine-1-sulfonyl]-5-methyl-phenyl}-acetic acid]: the values for the pEC50 at PPAR alpha, at PPAR delta and at PPAR gamma were under 4.00, 4.00 to 5.30 and under 4.00, respectively.
`Cc1cc(CC(=O)O)cc(S(=O)(=O)N2CCN(c3ccccc3)CC2)c1` [Example 174, [3-Methyl-5-(4-phenyl-piperazine-1-sulfonyl)-phenyl]-acetic acid]: the pEC50 at PPAR alpha, on PPAR delta and on PPAR gamma was under 4.00 in each case.
With `Cc1ccc(S(=O)(=O)N2CCN(c3ccc(Cl)c(Cl)c3)CC2)cc1CC(=O)O` [Example 175, {5-[4-(3,4-Dichloro-phenyl)-piperazine-1-sulfonyl]-2-methyl-phenyl}-acetic acid], the values for the pEC50 on PPAR alpha, at PPAR delta and on PPAR gamma were 4.00 to 5.30, over 5.30 and 4.00 to 5.30, respectively.
With `Cc1ccc(S(=O)(=O)N2CCN(c3ccc(Cl)cc3)CC2)cc1CC(=O)O` [Example 176, {5-[4-(4-Chloro-phenyl)-piperazine-1-sulfonyl]-2-methyl-phenyl}-acetic acid], the pEC50 on PPAR alpha was under 4.00; on PPAR delta, over 5.30; at PPAR gamma, 4.00 to 5.30.
For `Cc1cccc(N2CCN(S(=O)(=O)c3ccc(C)c(CC(=O)O)c3)CC2C)c1` (stereo not drawn) [Example 177, [2-Methyl-5-(3-methyl-4-m-tolyl-piperazine-1-sulfonyl)-phenyl]-acetic acid], in that order: under 4.00, 4.00 to 5.30 and 4.00 to 5.30.
For `Cc1ccc(S(=O)(=O)N2CCN(CCc3ccccc3)CC2)cc1CC(=O)O` [Example 178, [2-Methyl-5-(4-phenethyl-piperazine-1-sulfonyl)-phenyl]-acetic acid], in that order: under 4.00, 4.00 to 5.30 and 4.00 to 5.30.
For `COc1ccc(N2CCN(S(=O)(=O)c3ccc(C)c(CC(=O)O)c3)CC2)cc1OC` [Example 179, {5-[4-(3,4-Dimethoxy-phenyl)-piperazine-1-sulfonyl]-2-methyl-phenyl}-acetic acid] the same measures were under 4.00, under 4.00 and under 4.00.
For the compound `Cc1ccc(S(=O)(=O)N2CCN(c3ccc(F)cc3F)CC2)cc1CC(=O)O` [Example 180, {5-[4-(2,4-Difluoro-phenyl)-piperazine-1-sulfonyl]-2-methyl-phenyl}-acetic acid], the pEC50 at PPAR alpha was under 4.00; on PPAR delta, 4.00 to 5.30; on PPAR gamma, 4.00 to 5.30.
For `Cc1ccc(S(=O)(=O)N2CCN(c3ccccc3)CC2)cc1CC(=O)O` [Example 181, [2-Methyl-5-(4-phenyl-piperazine-1-sulfonyl)-phenyl]-acetic acid], the pEC50 at PPAR alpha was under 4.00; at PPAR delta, 4.00 to 5.30; on PPAR gamma it was 4.00 to 5.30.
On to `Cc1ccc(S(=O)(=O)N2CCN(c3ccc(C(F)(F)F)cn3)CC2)cc1CC(=O)O` [Example 182, {2-Methyl-S-[4-(5-trifluoromethyl-pyridin-2-yl)-piperazine-1-sulfonyl]-phenyl}-acetic acid], for which the negative logarithm of the EC50 (pEC50) on PPAR alpha was 4.00 to 5.30; on PPAR delta, over 5.30; on PPAR gamma it was over 5.30.
Turning to `Cc1ccc(S(=O)(=O)N2CCN(c3ccc(C(F)(F)F)cc3)CC2)cc1CC(=O)O` [Example 183, {2-Methyl-5-[4-(4-trifluoromethyl-phenyl)-piperazine-1-sulfonyl]-phenyl}-acetic acid], the pEC50 on PPAR alpha was 4.00 to 5.30; at PPAR delta, over 5.30; on PPAR gamma, 4.00 to 5.30.
On to `O=C(O)Cc1cccc(S(=O)(=O)N2CCC(c3ccc(Cl)cc3)CC2)c1` [Example 184, {3-[4-(4-Chloro-phenyl)-piperidine-1-sulfonyl]-phenyl}-acetic acid], for which the pEC50 on PPAR alpha was under 4.00; at PPAR delta, 4.00 to 5.30; at PPAR gamma, under 4.00.
Consider `Cc1cc(CC(=O)O)cc(S(=O)(=O)N2CCC(c3ccc(Cl)cc3)CC2)c1` [Example 185, {3-[4-(4-Chloro-phenyl)-piperidine-1-sulfonyl]-5-methyl-phenyl}-acetic acid], for which the values for the pEC50 at PPAR alpha, at PPAR delta and at PPAR gamma were under 4.00, 4.00 to 5.30 and 4.00 to 5.30, respectively.
For the compound `O=C(O)CCc1cccc(S(=O)(=O)N2CCN(c3ccc(Cl)c(Cl)c3)CC2)c1` [Example 186, 3-{3-[4-(3,4-Dichloro-phenyl)-piperazine-1-sulfonyl]-phenyl}-propionic acid], the pEC50 at PPAR alpha was under 4.00; at PPAR delta, over 5.30; at PPAR gamma, 4.00 to 5.30.
For `O=C(O)CCc1cccc(S(=O)(=O)N2CCN(c3ccc(Cl)cc3)CC2)c1` [Example 187, 3-{3-[4-(4-Chloro-phenyl)-piperazine-1-sulfonyl]-phenyl}-propionic acid], in that order: under 4.00, over 5.30 and 4.00 to 5.30.
For `O=C(O)COc1cccc(S(=O)(=O)N2CCN(c3ccc(Cl)c(Cl)c3)CC2)c1` [Example 188] the same measures were under 4.00, 4.00 to 5.30 and under 4.00.
Take `CC(C)(Oc1cccc(S(=O)(=O)N2CCN(c3ccc(Cl)c(Cl)c3)CC2)c1)C(=O)O` [Example 189, 2-{3-[4-(3,4-Dichloro-phenyl)-piperazine-1-sulfonyl]-phenoxy}-2-methyl-propionic acid]: the pEC50 on PPAR alpha was under 4.00; at PPAR delta, under 4.00; on PPAR gamma, 4.00 to 5.30.
In the case of `O=C(O)COc1cccc(S(=O)(=O)N2CCN(c3ccc(C(F)(F)F)cc3)CC2)c1` [Example 190, {3-[4-(4-Trifluoromethyl-phenyl)-piperazine-1-sulfonyl]-phenoxy}-acetic acid], the pEC50 at PPAR alpha is under 4.00; on PPAR delta, 4.00 to 5.30; on PPAR gamma it was under 4.00.
In the case of `CC(C)(Oc1cccc(S(=O)(=O)N2CCN(c3ccc(C(F)(F)F)cc3)CC2)c1)C(=O)O` [Example 191, 2-Methyl-2-{3-[4-(4-trifluoromethyl-phenyl)-piperazine-1-sulfonyl]-phenoxy}-propionic acid], the pEC50 on PPAR alpha, at PPAR delta and at PPAR gamma was 4.00 to 5.30 throughout.
For `C[C@@H]1CN(c2ccc(OC(F)(F)F)cc2)C[C@H](C)N1S(=O)(=O)c1ccc(O)c(CCC(=O)O)c1` [Example 192, 3-{5-[2,6-Dimethyl-4-(4-trifluoromethoxy-phenyl)-piperazine-1-sulfonyl]-2-hydroxy-phenyl}-propionic acid], the negative logarithm of the EC50 (pEC50) on PPAR alpha was under 4.00; at PPAR delta it was 4.00 to 5.30; at PPAR gamma, under 4.00.
`C[C@@H]1CN(c2ccc(C(F)(F)F)cn2)C[C@H](C)N1S(=O)(=O)c1ccc(O)c(CCC(=O)O)c1` [Example 193, 3-{5-[2,6-Dimethyl-4-(5-trifluoromethyl-pyridin-2-yl)-piperazine-1-sulfonyl]-2-hydroxy-phenyl}-propionic acid]: the pEC50 on PPAR alpha was under 4.00; on PPAR delta, 4.00 to 5.30; at PPAR gamma it was under 4.00.
Consider `COc1ccc(S(=O)(=O)N2[C@H](C)CN(c3ccc(C(F)(F)F)cn3)C[C@@H]2C)cc1CCC(=O)O` [Example 194, 3-{5-[2,6-Dimethyl-4-(5-trifluoromethyl-pyridin-2-yl)-piperazine-1-sulfonyl]-2-methoxy-phenyl}-propionic acid], for which the results for the pEC50 on PPAR alpha, on PPAR delta and at PPAR gamma were under 4.00, over 5.30 and under 4.00, respectively.

In general, pEC50 refers to the negative decadic logarithm of the EC50, by convention in mol/L. High values mean a small EC50, low ones a large EC50.
